Data published in patent US12116388B2, “Amylin receptor agonists” (Novo Nordisk A/S, priority 2022, dated 2024).
Starred links: 1 amine or outer side, 2 acyl side, 3 side chain; linkers in the order of their positions; H or OH if unused. Residues, ends and D or L forms follow the SMILES beside them. *: point of attachment. C20 diacid = O=C(O)CCCCCCCCCCCCCCCCCCC(=O)*; C18 diacid = O=C(O)CCCCCCCCCCCCCCCCC(=O)*; γGlu = O=C(O)[C@H](CCC(=O)[*:2])N[*:1]

How the values were obtained:
[1] = target: T1, human amylin receptor (hAMYR3) (Homo sapiens, UniProt O60896+P30988); test: Human amylin receptor (hAMYR3) in vitro potency assay, CRE-luciferase reporter in BHK cells; assay type: cell-based; settings: BHK hAMYR3/CRE-Luc cells, 3 hours incubation, assay buffer with 1% ovalbumin
T1 construct: host or cells: BHK (Baby Hamster Kidney), Hollex-1 cell line further transfected with RAMP3
Text: (§1) Activation of hAMYR3 leads to increased cellular concentrations of cAMP. Consequently, transcription is activated by promotors containing multiple copies of the CAMP response element (CRE). It is thus possible to measure hAMYR3 activity using a CRE-luciferase reporter gene introduced into Baby Hamster Kidney (BHK) cells co-expressing the hAMYR3.
A BHK cell line was stably transfected with the human calcitonin receptor (a) and a CRE-responsive luciferase (CRE-Luc) reporter gene according to methods known to the person skilled in the art (Hollex-1 cell line, obtained from Zymogenetics described in U.S. Pat. No. 5,622,839). The cell line was further transfected with human receptor modifying protein 3 (RAMP3) using standard methods. This turns the human calcitonin receptor into a human amylin-3(a) receptor.
(§2) Cells stocks were prepared by culturing of the stably transfected BHK hAMYR3/CRE-Luc cell line in growth medium consisting of DMEM (Gibco, 31966-021) supplemented with 10% FBS (Gibco, 16140-071), 1% Pen/Strep (Gibco, 15140-122), 0.5 mg/mL Geneticin (Gibco, 10131-027), 0.4 mg/mL Hygromycin (Invitrogen, 10687010) and 250 nM Methotrexate (Sigma, A6770). Cells at approximately 80-90% confluence were washed once with PBS (Gibco 14190-094) and loosened from the cell flasks with Versene (Gibco, 15040-033) or TrypLE™ (Gibco, 12605-010). After centrifugation, the cell pellet was dissolved and diluted to approximately 2.5×10E6 cells/mL in Recovery™ Cell Culture Freezing Medium (Gibco, 12648-010). Cells were aliquoted and stored at −180° C. until use.
(§3) The assay buffer consisted of DMEM without phenol red (Gibco, 11880-028) supplemented with 1× GlutaMAX (Gibco, 35050-038), 10 mM HEPES (Gibco, 15630-056) and 1% (w/v) ovalbumin (Sigma, A5503).
(§4) To perform the assay, BHK hAMYR3/CRE-Luc cells were thawed, washed once in PBS and seeded in 40 μL growth medium in a white 384-well culture plate (PerkinElmer, 6007688) at a cell density of 4.000 cells/well on the day before the experiment. The plate was incubated over night at 37° C. in 5% CO2. On the day of the assay, cells were washed once in assay buffer. Serial dilutions (7-fold dilutions, 7 concentrations Pr. compound and one well containing only assay buffer) of comparator compounds and amylin analogues were performed in assay buffer often starting from approximately 10 nM in 96-well plates and 30 μL of each concentration added to the 384-well assay plate with cells. The assay plate was incubated for 3 hours at 37° C. in 5% CO2 after which 30 μL SteadyLite Plus (PerkinElmer, 6066759) was added to each well. The assay plate was sealed, incubated at room temperature with gentle shaking for 5 minutes followed by 30 minutes incubation without shaking while protected from light. Luminescence was detected on a luminescence plate reader e.g. a Synergy 2 (BioTek).

[2] = target: T2, human calcitonin receptor (hCTR) (Homo sapiens, UniProt P30988); test: Human calcitonin receptor (hCTR) in vitro potency assay, CRE-luciferase reporter in BHK cells; assay type: cell-based; settings: BHK hCTR/CRE-Luc cells, 3 hours incubation, assay buffer with 1% ovalbumin; read-out: hCalcR potency, EC50
T2 construct: host or cells: BHK (Baby Hamster Kidney), Hollex-1 cell line
T2 sequence (P30988 25-474): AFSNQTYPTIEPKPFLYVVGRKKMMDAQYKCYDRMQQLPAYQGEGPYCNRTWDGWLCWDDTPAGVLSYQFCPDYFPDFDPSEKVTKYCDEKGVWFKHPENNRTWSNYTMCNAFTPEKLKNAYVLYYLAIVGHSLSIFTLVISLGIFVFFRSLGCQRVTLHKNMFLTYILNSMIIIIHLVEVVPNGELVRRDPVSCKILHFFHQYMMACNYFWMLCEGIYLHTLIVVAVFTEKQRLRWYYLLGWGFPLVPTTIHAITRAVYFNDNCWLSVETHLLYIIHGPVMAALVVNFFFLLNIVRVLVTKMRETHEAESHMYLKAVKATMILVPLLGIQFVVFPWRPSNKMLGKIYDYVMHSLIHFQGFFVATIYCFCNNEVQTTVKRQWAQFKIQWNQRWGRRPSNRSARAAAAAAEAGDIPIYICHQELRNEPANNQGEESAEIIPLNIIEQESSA
Text: as §1, with “hCTR” for “hAMYR3”, “CAMP.” for “cAMP.”, “hCTR.” for “hAMYR3.”
A BHK cell line was stably transfected with the human calcitonin receptor (a) and a CRE-responsive luciferase (CRE-Luc) reporter gene according to methods known to the person skilled in the art (Hollex-1 cell line, obtained from Zymogenetics described in U.S. Pat. No. 5,622,839).
as §2, with “hCTR/CRE-Luc” for “hAMYR3/CRE-Luc”, “10131-027)” for “10131-027), 0.4 mg/mL Hygromycin (Invitrogen, 10687010)”
as §3
as §4, with “hCTR/CRE-Luc” for “hAMYR3/CRE-Luc”

T1 sequence (O60896 24-148, one chain of several): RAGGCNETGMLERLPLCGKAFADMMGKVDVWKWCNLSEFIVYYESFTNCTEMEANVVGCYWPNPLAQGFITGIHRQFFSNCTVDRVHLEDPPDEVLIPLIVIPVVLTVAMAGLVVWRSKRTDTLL

EC50 [1] [pM] | EC50 [2] [pM] | SMILES
1.68 | 1.81 | CC[C@H](C)[C@H](NC(=O)[C@H](C)NC(=O)CNC(=O)[C@H](Cc1ccccc1)NC(=O)[C@@H]1CCCN1C(=O)[C@H](CC(=O)O)NC(=O)[C@H](CO)NC(=O)[C@H](CO)NC(=O)[C@H](Cc1c[nH]cn1)NC(=O)[C@H](Cc1c[nH]cn1)NC(=O)[C@H](CC(C)C)NC(=O)[C@H](Cc1ccccc1)NC(=O)[C@H](CCC(=O)O)NC(=O)[C@H](C)NC(=O)[C@H](CC(C)C)NC(=O)[C@H](CCCNC(=N)N)NC(=O)[C@H](CCC(N)=O)NC(=O)[C@@H](NC(=O)[C@H](CCC(N)=O)NC(=O)[C@H](C)NC(=O)[C@@H](NC(=O)[C@H](CO)NC(=O)[C@H](CC(C)C)NC(=O)[C@H](Cc1c[nH]cn1)NC(=O)CNC(=O)[C@H](C)NC(=O)CC[C@H](NC(=O)CCCCCCCCCCCCCCCCCCC(=O)O)C(=O)O)[C@@H](C)O)[C@@H](C)O)C(=O)N1CCC[C@H]1C(=O)N[C@@H](CO)C(=O)N[C@@H](CO)C(=O)N[C@H](C(=O)N[C@@H](CC(=O)O)C(=O)N[C@H](C(=O)NCC(=O)N1CCC[C@H]1C(=O)N[C@@H](CC(=O)O)C(=O)N[C@H](C(=O)N1CCC[C@H]1C(N)=O)[C@@H](C)O)C(C)C)[C@@H](C)O [Compound 7, N^1-[(4S)-4-carboxy-4-(19-carboxynonadecanoylamino)butanoyl]-[Ala1,Gly2,His3,Leu4,Ser5,Ala7,Gln8,Glu14,His17,Asp21,Pro22,Pro27,Asp31,Pro34,Asp35,Pro37]-human amylin] ({C20 diacid-γGlu}-AGHLSTAQTQRLAEFLHHSSDPFGAIPSSTDVGPDTP-NH2)
2.18 | 1.68 | CC[C@H](C)[C@H](NC(=O)[C@H](C)NC(=O)CNC(=O)[C@H](Cc1ccccc1)NC(=O)[C@@H]1CCCN1C(=O)[C@H](CC(=O)O)NC(=O)[C@H](CO)NC(=O)[C@H](CO)NC(=O)[C@H](Cc1c[nH]cn1)NC(=O)[C@H](Cc1c[nH]cn1)NC(=O)[C@H](CC(C)C)NC(=O)[C@H](Cc1ccccc1)NC(=O)[C@H](CCC(=O)O)NC(=O)[C@H](C)NC(=O)[C@H](CC(C)C)NC(=O)[C@H](CCCNC(=N)N)NC(=O)[C@H](CCC(N)=O)NC(=O)[C@@H](NC(=O)[C@H](CCC(N)=O)NC(=O)[C@H](C)NC(=O)[C@@H](NC(=O)[C@H](CO)NC(=O)[C@H](CC(C)C)NC(=O)[C@H](Cc1c[nH]cn1)NC(=O)[C@H](CO)NC(=O)[C@H](C)NC(=O)CC[C@H](NC(=O)CC[C@H](NC(=O)CCCCCCCCCCCCCCCCC(=O)O)C(=O)O)C(=O)O)[C@@H](C)O)[C@@H](C)O)C(=O)N1CCC[C@H]1C(=O)N[C@@H](CO)C(=O)N[C@@H](CO)C(=O)N[C@H](C(=O)N[C@@H](CC(=O)O)C(=O)N[C@H](C(=O)NCC(=O)N1CCC[C@H]1C(=O)N[C@@H](CC(=O)O)C(=O)N[C@H](C(=O)N1CCC[C@H]1C(N)=O)[C@@H](C)O)C(C)C)[C@@H](C)O [Compound 9, N^1-[(4S)-4-carboxy-4-[[(4S)-4-carboxy-4-(17-carboxyheptadecanoylamino)butanoyl]amino]butanoyl]-[Ala1,Ser2,His3,Leu4,Ser5,Ala7,Gln8,Glu14,His17,Asp21,Pro22,Pro27,Asp31,Pro34,Asp35,Pro37]-human amylin] ({C18 diacid-γGlu-γGlu}-ASHLSTAQTQRLAEFLHHSSDPFGAIPSSTDVGPDTP-NH2)
2.43 | 1.58 | CC[C@H](C)[C@H](NC(=O)[C@H](C)NC(=O)CNC(=O)[C@H](Cc1ccccc1)NC(=O)[C@@H]1CCCN1C(=O)[C@H](CC(=O)O)NC(=O)[C@H](CO)NC(=O)[C@H](CO)NC(=O)[C@H](Cc1c[nH]cn1)NC(=O)[C@H](Cc1c[nH]cn1)NC(=O)[C@H](CC(C)C)NC(=O)[C@H](Cc1ccccc1)NC(=O)[C@H](CCC(=O)O)NC(=O)[C@H](C)NC(=O)[C@H](CC(C)C)NC(=O)[C@H](CCCNC(=N)N)NC(=O)[C@H](CCC(N)=O)NC(=O)[C@@H](NC(=O)[C@H](CCC(N)=O)NC(=O)[C@H](C)NC(=O)[C@@H](NC(=O)[C@H](CO)NC(=O)[C@H](CC(C)C)NC(=O)[C@H](CCC(=O)O)NC(=O)CNC(=O)[C@H](C)NC(=O)CC[C@H](NC(=O)CCCCCCCCCCCCCCCCC(=O)O)C(=O)O)[C@@H](C)O)[C@@H](C)O)C(=O)N1CCC[C@H]1C(=O)N[C@@H](CO)C(=O)N[C@@H](CO)C(=O)N[C@H](C(=O)N[C@@H](CC(=O)O)C(=O)N[C@H](C(=O)NCC(=O)N1CCC[C@H]1C(=O)N[C@@H](CC(=O)O)C(=O)N[C@H](C(=O)N1CCC[C@H]1C(N)=O)[C@@H](C)O)C(C)C)[C@@H](C)O [Compound 11, N^1-[(4S)-4-carboxy-4-(17-carboxyheptadecanoylamino)butanoyl]-[Ala1,Gly2,Glu3,Leu4,Ser5,Ala7,Gln8,Glu14,His17,Asp21,Pro22,Pro27,Asp31,Pro34,Asp35,Pro37]-human amylin] ({C18 diacid-γGlu}-AGELSTAQTQRLAEFLHHSSDPFGAIPSSTDVGPDTP-NH2)
